From patent EP0522504A1, “2-(2-substituted pyrrolidinylthio)-carbapenem derivatives” (Banyu Pharmaceutical Co., Ltd., priority 1991, dated 1993)
≈ marks a conversion by molar mass, not a printed value. Where two headings read alike, the source gives them in different places.

Legend:
[1] = system: bacteria; assay: disc diffusion test (method of Bauer et al.), antibacterial potency relative to thienamycin; format: cell-based; conditions: ratio to thienamycin (= 1.0) of geometrical average MIC, larger value = higher activity
Method: The antibacterial activities of the compounds of the present invention described in the Examples, as representative examples of the compound of the present invention, were measured by a disc diffusion test by the method of Bauer et al. (Amer. J. Clin. Pathol., vol. 45, p. 493 (1966)). Thienamycin or imipenem was used as the internal standard.
MIC of each test compound was calculated from the diameter of the inhibition ring formed by the disc containing the test compound by using the calculation formula reported by Humphrey and Lightbown (J. Gen. Microbiol., vol. 7, p. 129 (1952)). For each microorganism, a geometrical average of MIC was obtained, and the activity ratio to thienamycin was calculated.
The antibacterial activities are represented by the ratio to thienamycin (= 1.0), whereby the larger the numerical value, the higher the activities.

[2] = system: bacteria; assay: in vitro antibacterial activities, agar plate dilution method (MIC); format: cell-based; conditions: Mueller Hinton agar, inoculum 10⁶ CFU/mℓ, 37°C for 16 hours
Method: One platinum loopful of each test microorganism incubated overnight in Mueller Hinton broth, was inoculated to Mueller Hinton agar (inoculum size: 10⁶ CFU/mℓ). Such culture media contained antibacterial agents in various concentrations. After incubation at 37°C for 16 hours, the minimum inhibitory concentrations (MIC: µg/mℓ) were measured.

[3] = target: T1, DHP-I (Homo sapiens, UniProt P16444); assay: DHP-I susceptibility (method by Kropp et al.), ratio to imipenem; format: in vitro ADME
T1 sequence (P16444 17-385): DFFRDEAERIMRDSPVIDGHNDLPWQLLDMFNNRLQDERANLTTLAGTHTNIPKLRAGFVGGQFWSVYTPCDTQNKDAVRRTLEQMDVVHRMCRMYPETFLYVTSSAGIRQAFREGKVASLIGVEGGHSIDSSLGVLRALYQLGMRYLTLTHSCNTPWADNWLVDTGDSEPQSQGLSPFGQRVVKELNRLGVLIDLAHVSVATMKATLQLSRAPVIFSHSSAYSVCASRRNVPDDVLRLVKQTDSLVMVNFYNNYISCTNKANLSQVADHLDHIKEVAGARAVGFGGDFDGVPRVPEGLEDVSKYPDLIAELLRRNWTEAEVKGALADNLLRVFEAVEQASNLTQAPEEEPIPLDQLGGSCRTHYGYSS
Source text: The DHP-I susceptibility was quantitatively analyzed by the method by Kropp et al., Antimicrob. Agents Chemother., vol. 22, p.

[4] = ratio to imipenem (=1.0), smaller value = higher stability
[5] = Pseudomonas aeruginosa, 16 h, P. aeruginosa MB 5002, read-out: Minimum Inhibitory Concentration(MIC)
[6] = Pseudomonas aeruginosa, 16 h, P. aeruginosa MB 5178, read-out: Minimum Inhibitory Concentration(MIC)
[7] = Staphylococcus aureus, 209P / NIHJJC1, 16 h, S. aureus 209P NIHJ JC1, read-out: Minimum Inhibitory Concentration(MIC)
[8] = Staphylococcus aureus, 16 h, S. aureus BB 5939 (β-lactamase producing microorganism), read-out: Minimum Inhibitory Concentration(MIC)
[9] = Staphylococcus aureus, 16 h, S. aureus MB 4970, read-out: Minimum Inhibitory Concentration(MIC)

SMILES	Relative antibacterial potency to thienamycin ([1]; Meth-R S. aureus)	Relative antibacterial potency to thienamycin ([1]; THM-R P.aeruginosa)	MIC ([2]; Pseudomonas aeruginosa, 16 h, read-out: Minimum Inhibitory Concentration(MIC), P. aeruginosa MB 5002) [µg/mL]	MIC ([2]; Pseudomonas aeruginosa, 16 h, read-out: Minimum Inhibitory Concentration(MIC), P. aeruginosa MB 5178) [µg/mL]	MIC ([2]; Staphylococcus aureus, 209P / NIHJJC1, 16 h, read-out: Minimum Inhibitory Concentration(MIC), S. aureus 209P NIHJ JC1) [µg/mL]	MIC ([2]; Staphylococcus aureus, 16 h, read-out: Minimum Inhibitory Concentration(MIC), S. aureus BB 5939 (β-lactamase producing microorganism)) [µg/mL]	MIC ([2]; Staphylococcus aureus, 16 h, read-out: Minimum Inhibitory Concentration(MIC), S. aureus MB 4970) [µg/mL]	DHP-I susceptibility [3, 4]	DHP-I susceptibility, ratio to imipenem ([3]; the smaller the numerical value, the higher the stability)	MIC [2, 5] [µg/mL]	MIC [2, 6] [µg/mL]	MIC [2, 7] [µg/mL]	MIC [2, 8] [µg/mL]	MIC [2, 9] [µg/mL]	DHP-I susceptibility [3]
C[C@@H](O)[C@H]1C(=O)N2C(C(=O)O)=C(SCCN=CN)C[C@H]12 [imipenem, (5R,6S,8R)-3-[[2-(formimidoylamino)ethyl]thio]-6-(1-hydroxyethyl)-7-oxo-1-azabicyclo[3.2.0]hept-2-en-2-carboxylic acid monohydrate, reference compound]	2.57	2.0	1.56	25	< 0.006	6.25	0.012	1.0	1.0						
CNC/C(C)=C\[C@@H]1C[C@H](SC2=C(C(=O)O)N3C(=O)[C@H]([C@@H](C)O)[C@H]3[C@H]2C)CN1.Cl [Example 9, (1R,5S,6S)-6-[(R)-1-hydroxyethyl]-2-[(2S,4S)-2-[(Z)-3-(N-methylamino)-2-methyl-1-propenyl]pyrrolidin-4-ylthio]-1-methyl-1-carbapen-2-em-3-carboxylic acid hydrochloride]	19.7	13.4						0.10		0.78	3.13	< 0.006	1.56	< 0.006	
C/C(=C/[C@@H]1C[C@H](SC2=C(C(=O)O)N3C(=O)[C@H]([C@@H](C)O)[C@H]3[C@H]2C)CN1)CN.Cl [Example 7, (1R,5S,6S)-2-[(2S,4S)-2-[(Z)-3-amino-2-methyl-1-propenyl]pyrrolidin-4-ylthio]-6-[(R)-1-hydroxyethyl]-1-methyl-1-carbapen-2-em-3-carboxylic acid hydrochloride]	13.5	31.3						<0.05		0.78	1.56	< 0.006	1.56	< 0.006	
C[C@@H](O)[C@H]1C(=O)N2C(C(=O)O)=C(S[C@@H]3CN[C@H](/C=C\CN)C3)[C@H](C)[C@H]12 [Example 2, (1R,5S,6S)-2-[(2S,4S)-2-[(Z)-3-amino-1-propenyl]pyrrolidin-4-ylthio]-6-[(R)-1-hydroxyethyl]-1-methyl-1-carbapen-2-em-3-carboxylic acid]	12.9	15.2								0.78 (≈ 2.12 µM)	1.56 (≈ 4.25 µM)	< 0.006	1.56 (≈ 4.25 µM)	0.012 (≈ 0.0327 µM)	<0.05
C[C@@H](O)[C@H]1C(=O)N2C(C(=O)O)=C(S[C@@H]3CN[C@H](/C=C/C(N)=O)C3)[C@H](C)[C@H]12 [BO-2171, (1R,5S,6S)-2-[(2S,4S)-2-[(E)-2-(aminocarbonyl)vinyl]pyrrolidin-4-ylthio]-6-[(R)-1-hydroxyethyl]-1-methyl-1-carbapen-2-em-3-carboxylic acid, reference compound]	7.68	3.28								6.25 (≈ 16.4 µM)	12.5 (≈ 32.8 µM)	0.025 (≈ 0.0655 µM)	6.25 (≈ 16.4 µM)	0.025 (≈ 0.0655 µM)	0.3
